Measurements: PubChem BioAssay (NCI)
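Each compound was tested at five concentrations against cells in 96-well plates for 48 hours. GI50: concentration for 50% inhibition of growth. TGI marks complete inhibition of growth.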

Tests used:
Experiment in all cases: DTP human tumour cell line panel, 48 h
[1] = test system: SK-MEL-28 melanoma
[2] = test system: SN12C renal
[3] = test system: LOX IMVI melanoma
[4] = test system: HOP-92 NSCLC
[5] = test system: SK-MEL-5 melanoma
[6] = test system: K-562 leukemia
[7] = test system: HL-60(TB) leukemia
[8] = test system: OVCAR-4 ovarian
[9] = test system: T-47D breast
[10] = test system: SF-268 CNS

| Structure (SMILES) | GI50 [1] | TGI [1] | GI50 [2] | TGI [2] | GI50 [3] | TGI [3] | GI50 [4] | TGI [4] | GI50 [5] | TGI [5] | GI50 [6] | TGI [6] | GI50 [7] | TGI [7] | GI50 [8] | TGI [8] | GI50 [9] | TGI [9] | GI50 [10] | TGI [10] |
| --- | --- | --- | --- | --- | --- | --- | --- | --- | --- | --- | --- | --- | --- | --- | --- | --- | --- | --- | --- | --- |
| c1ccc2c(c1)Nc1ccncc1S2 | 31.5 µM | > 100 µM | 27.8 µM | > 100 µM | 23.8 µM | > 100 µM | 8.07 µM | 71.6 µM | 25.8 µM | > 100 µM | 29.4 µM | > 100 µM | 19.4 µM | 75.4 µM | 23.7 µM | > 100 µM | 22.4 µM | 96.3 µM | 24.5 µM | > 100 µM |
| CN(CCNCc1ccccn1)CCNCc1ccccn1 | 2.64 µM | 8.17 µM | 4.33 µM | 17.2 µM | 2.48 µM | 6.88 µM | 2.02 µM | 5.27 µM | 1.75 µM | 3.16 µM | 3.58 µM | > 100 µM | 3.27 µM | 23.3 µM | 2.85 µM | 8.99 µM | 3.43 µM | 28 µM | 3.96 µM | 15.4 µM |
| COc1ccc(/C=C(\C#N)n2nnc3c(F)cccc32)cc1 | 1.28 µM | > 100 µM | 0.585 µM | > 100 µM | 0.493 µM | 16.6 µM | 0.293 µM | 42.9 µM | 0.47 µM | > 33.7 µM | 0.0645 µM | > 100 µM | 0.229 µM | 0.82 µM | > 28.2 µM | > 100 µM | 1.05 µM | > 100 µM | 1.68 µM | > 100 µM |
| Oc1ccc(C(c2ccc(O)cc2)c2ccc(Br)cn2)cc1 | 21.3 µM | 60 µM | 0.325 µM | 3.82 µM | 0.282 µM | 0.895 µM | 0.25 µM | 1.44 µM | 11.9 µM | 24.5 µM | 14.4 µM | > 100 µM | 10.6 µM | 44 µM | 0.101 µM | 0.525 µM | 0.177 µM | 0.531 µM | 21.5 µM | > 91 µM |
| NS(=O)(=O)c1ccc(-c2cc3ccncc3cc2OCc2ccccc2)cc1 | 20.6 µM | > 25 µM | 24.9 µM | > 25 µM | > 22.6 µM | > 25 µM | 4.94 µM | > 25 µM | > 25 µM | > 25 µM | > 19.6 µM | > 25 µM | 6.43 µM | > 19.3 µM | > 19.6 µM | > 25 µM | > 19.4 µM | > 25 µM | > 20.1 µM | > 25 µM |
| COC1=C(OC)C(=O)C(SC/C=C(\C)CCCC(C)CCCC(C)CCCC(C)C)=CC1=O (centres undefined) | 1.04 µM | > 100 µM | 0.741 µM | > 100 µM | 0.488 µM | > 100 µM | 1.41 µM | 6.65 µM | 0.341 µM | 1.73 µM | 0.678 µM | > 100 µM | 0.359 µM | 3.41 µM | 1.32 µM | > 100 µM | 0.478 µM | 12.1 µM | 1.98 µM | > 100 µM |
| Cc1cccc2c3c(sc12)C(c1ccc(Cl)cc1)C(C#N)=C(N)O3 (centres undefined) | 3.69 µM | 20.7 µM | 0.544 µM | 11.2 µM | 0.663 µM | 3.92 µM | 1.32 µM | 19 µM | 0.467 µM | 4.11 µM | 0.285 µM | 14.2 µM | 0.3 µM | 1.21 µM | 2.08 µM | 18.5 µM | 0.411 µM | 25.3 µM | 1.41 µM | 14.8 µM |
| C[C@]12CC[C@@H]3c4cc(OC(F)F)c(OS(N)(=O)=O)cc4CC[C@H]3[C@@H]1CC[C@@H]2O | 1.43 µM | 24.6 µM | 0.608 µM | 19.1 µM | 0.428 µM | 15.3 µM | 1.64 µM | 28.6 µM | 0.315 µM | 3.56 µM | 0.364 µM | > 100 µM | 0.338 µM | 2.49 µM | 7.8 µM | 83.9 µM | 0.445 µM | 43.2 µM | 1.49 µM | 60.3 µM |
| O=C(CC1(O)C(=O)N(Cc2ccccc2)c2ccccc21)c1ccc(C(=O)NCC2CCC3(CC2)OOC2(CCCCC2)OO3)cc1 (centres undefined) | 4.96 µM | 26.8 µM | 1.66 µM | 3.76 µM | 0.154 µM | 0.31 µM | 0.184 µM | 0.434 µM | 1.66 µM | 3.14 µM | 1.72 µM | 4.83 µM | 0.539 µM | 2.09 µM | 1.95 µM | 5.35 µM | 1.41 µM | 4.04 µM | 1.85 µM | 4.03 µM |
| C=CCN1CC(=O)N2[C@@H](Cc3ccc(O)cc3F)C(=O)N(Cc3cccc(N4CC(N5CCN(CC)CC5)C4)n3)C[C@@H]2N1C(=O)NCc1ccccc1 | 0.0405 µM | > 100 µM | 0.111 µM | > 100 µM | 0.0339 µM | 0.584 µM | 0.0217 µM | 0.0829 µM | 0.0703 µM | 0.33 µM | 0.0397 µM | > 100 µM | 0.226 µM | 26.5 µM | 0.0329 µM | > 100 µM | 0.0339 µM | > 100 µM | 0.0348 µM | > 100 µM |
| CCc1cccc(C)c1NC(=O)c1sc2nc3c(cc2c1N)C(=O)CCC3 | 1.09 µM | > 100 µM | 0.909 µM | > 100 µM | 0.742 µM | > 100 µM | 0.644 µM | 74.7 µM | 0.353 µM | 5.89 µM | 0.422 µM | 22.4 µM | 0.327 µM | – | 0.78 µM | > 100 µM | 0.665 µM | > 78.5 µM | 3.06 µM | > 100 µM |
| CCCCCCNC(=O)Oc1ccc(/C(=C(\C)c2ccc(Cl)cc2)c2ccc(OCCN3CCCCC3)cc2)cc1 | 4.34 µM | 9.34 µM | 4.22 µM | 8.68 µM | 4.83 µM | 9.41 µM | 3.55 µM | 7.88 µM | 2.46 µM | 6.71 µM | 0.923 µM | 3.51 µM | 1.17 µM | 4.88 µM | 2.35 µM | 7.73 µM | 0.722 µM | 7.11 µM | 4.9 µM | 14 µM |
| c1ccc2cc(-c3n(Cc4ccc5ccccc5n4)c4ccccc4[n+]3Cc3ccc4ccccc4n3)ccc2c1 | 0.423 µM | 1.65 µM | 0.298 µM | 1.11 µM | 0.259 µM | 0.837 µM | 0.136 µM | 0.517 µM | 0.201 µM | 0.422 µM | 0.16 µM | 1.39 µM | 0.152 µM | 0.462 µM | 0.255 µM | 1.13 µM | 0.222 µM | 1.28 µM | 0.332 µM | 1.42 µM |
| Cc1cc(N(CCCNc2ccnc3cc(Cl)ccc23)Cc2ccco2)nc(N2CCN(C)CC2)n1 | 1.74 µM | 3.41 µM | 4.24 µM | 17 µM | 1.69 µM | 3.53 µM | 1.92 µM | 4.99 µM | 1.75 µM | 3.17 µM | 2.07 µM | 10.4 µM | 2.06 µM | 4.37 µM | 3.59 µM | 19.6 µM | 2.15 µM | 5.68 µM | 2.9 µM | 15.7 µM |
| O=[N+]([O-])c1ccc(N2CCOCC2)c2c1no[n+]2[O-] | 4.32 µM | 16 µM | 1.2 µM | 2.85 µM | 0.675 µM | 2.13 µM | 0.923 µM | 5.62 µM | 1.41 µM | 3.34 µM | 1.65 µM | 3.57 µM | 0.632 µM | 2.52 µM | 1.38 µM | 3.99 µM | 1.14 µM | 4.58 µM | 0.939 µM | 3.03 µM |
